Results from ChEMBL document CHEMBL6182842, “Progress in the development of macrophage migration inhibitory factor small-molecule inhibitors” (Eur J Med Chem, 2025).

Columns and labels:
[1] = molecular target: T1, D-dopachrome decarboxylase (Homo sapiens, UniProt P30046); experiment: Binding affinity to human DDT extracted from Escherichia coli assessed as inhibition constant
[2] = molecular target: T2, Macrophage migration inhibitory factor (Homo sapiens) (UniProt P14174); experiment: Potency index, ratio of ISO-1 IC50 to test compound IC50 for inhibition of human recombinant MIF
T2 sequence (whole entry): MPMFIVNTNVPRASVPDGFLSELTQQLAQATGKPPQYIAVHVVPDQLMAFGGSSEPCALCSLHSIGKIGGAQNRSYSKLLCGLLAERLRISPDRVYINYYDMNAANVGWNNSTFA

[3] = molecular target: T3, Macrophage migration inhibitory factor (Homo sapiens, UniProt P14174); experiment: Binding affinity to human recombinant MIF extracted from Escherichia coli BL21 (DE3) assessed as inhibition constant
T3 sequence (P14174 whole entry): T2 sequence (whole entry)

[4] = molecular target: T3, Macrophage migration inhibitory factor; experiment: Inhibition of human recombinant MIF extracted from Escherichia coli BL21 (DE3)
[5] = molecular target: T3, Macrophage migration inhibitory factor; experiment: Inhibition of MIF (unknown origin)
[6] = molecular target: T3, Macrophage migration inhibitory factor; experiment: Inhibition of human recombinant MIF tautomerase activity
[7] = molecular target: T1, D-dopachrome decarboxylase; experiment: Inhibition of wild type human DDT tautomerase activity at 100 uM relative to control
[8] = molecular target: T3, Macrophage migration inhibitory factor; experiment: Binding affinity to wild type human MIF extracted from Escherichia coli BL 21 (DE3) assessed as inhibition constant
Homo sapiens = species: Homo sapiens; experiment: Selectivity ratio of Ki for wild type human DDT to Ki for wild type human MIF
[9] = molecular target: T3, Macrophage migration inhibitory factor; experiment: Inhibition of human full length MIF extracted from Escherichia coli BL21 (DE3) by UV absorbance based analysis
[10] = molecular target: T3, Macrophage migration inhibitory factor; experiment: Inhibition of human recombinant MIF incubated for 30 mins by microplate reader assay
[11] = molecular target: T1, D-dopachrome decarboxylase; experiment: Inhibition of human DDT extracted from Escherichia coli

T1 sequence (P30046 whole entry): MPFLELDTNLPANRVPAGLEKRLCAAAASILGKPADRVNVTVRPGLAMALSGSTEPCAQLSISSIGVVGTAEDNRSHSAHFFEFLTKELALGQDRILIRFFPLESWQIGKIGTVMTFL

## O=C(O)c1cccc(-c2cc(C(=O)O)ncc2C(=O)O)c1
[1]
  Ki: 33 µM

## C[C@@H]1O[C@@H](O[C@H]2[C@H](Oc3cc(O)c4c(c3)O[C@@H](c3ccc(O)cc3)CC4=O)O[C@H](CO)[C@@H](O)[C@@H]2O)[C@H](O)[C@H](O)[C@H]1O
[2]
  Ratio IC50: 13.3
[3]
  Ki: 43.5 µM
[4]
  IC50: 51.4 µM

## COC(=O)c1ccc(O)c2nc3c(C=O)c(O)cc(O)c3nc12 [LOMOFUNGIN]
[5]
  IC50: 0.47 µM

## Cc1ccc(/C=C2\CCc3ccccc3C2=O)cc1
[6]
  IC50: 16.5 µM

## O=C1/C(=C/c2ccccc2)CCCc2ccccc21
[6]
  IC50: 84 µM

## O=c1c(O)c(-c2ccc(O)cc2O)oc2cc(O)cc(O)c12 [MORIN]
[2]
  Ratio IC50: 6.3
[3]
  Ki: 8.95 µM
[4]
  IC50: 11 µM

## O=c1c(O)c(-c2ccc(O)cc2)oc2cc(O)cc(O)c12 [KAEMPFEROL]
[2]
  Ratio IC50: 17.2
[4]
  IC50: 189 µM

## Cn1cccc1/C=C1\CCc2ccccc2C1=O
[6]
  IC50: 23.8 µM

## O=C1/C(=C/c2ccco2)CCc2ccccc21
[6]
  IC50: 57.7 µM

## O=C(O)c1ccc(C(=O)O)nc1 [PYRIDINE-2,5-DICARBOXYLIC ACID]
[7]
  inhibition: < 25%
[8]
  Ki: 17.2 µM
Homo sapiens
  Ratio Ki: 79

## Cc1cc(C(c2ccccn2)N2CCOCC2)c(NC(=O)c2ccco2)s1 (centres undefined)
[9]
  IC50: 6.44 µM

## O=C(O)c1cccnc1
[7]
  inhibition: > 100%

## O=C1/C(=C/c2cccnc2)CCc2ccccc21
[6]
  IC50: 20.3 µM

## O=C1/C(=C/c2ccncc2)CCc2ccccc21
[6]
  IC50: 21 µM

## COc1cc(/C=C2\CCc3cc(O)ccc3C2=O)ccc1O
[6]
  IC50: 4.31 µM

## O=c1oc2ccc(F)cc2cc1-c1nc(-c2cccs2)no1
[10]
  IC50: 7.57 µM

## CCC(CC)c1nnc(NC(=O)Oc2ccccc2)s1
[10]
  IC50: 12 µM

## O=C1/C(=C/c2ccccc2)CCc2ccccc21
[6]
  IC50: 127 µM

## CC(=O)NS(=O)(=O)c1ccc(NC(=O)CC(C)(C)C)cc1
[10]
  IC50: 1.22 µM

## Cc1cc(-c2ccccc2)ncn1
[11]
  IC50: > 500 µM

## Cc1c(C(=O)c2ccc(Cl)cc2)oc2cc(N)ccc12
[10]
  IC50: 14 µM

## COc1ccccc1/C=C1\COc2ccccc2C1=O
[6]
  IC50: 4.31 µM

## c1ccc(-c2ccncc2)cc1
[7]
  inhibition: > 100%

## COc1ccc(C(=O)Nc2nnc(-c3ccco3)o2)c(OC)c1
[9]
  IC50: 6.87 µM

## O=C(CC1(O)C(=O)N(Cc2ccccc2Cl)c2ccccc21)C1Cc2ccccc2OC1=O (centres undefined)
[10]
  IC50: 7.55 µM

## O=C(CSc1cc(-c2ccccc2)ncn1)c1ccc(O)cc1O
[10]
  IC50: 9.49 µM

## O=C1/C(=C/c2ccc3cc[nH]c3c2)CCc2ccccc21
[6]
  IC50: 58.8 µM

## O=c1c(-c2c(O)cc(O)c3c(=O)cc(-c4ccc(O)cc4)oc23)c(-c2ccc(O)cc2)oc2cc(O)cc(O)c12
[3]
  Ki: 10.1 µM
[4]
  IC50: 13.3 µM

## Nc1ccccc1NC(=O)c1ccc(NC(=O)Cc2ccc(N3Cc4ccc(O)cc4OC3=O)cc2)cc1
[5]
  IC50: 0.81 µM

## O=C(O)c1ccccn1
[7]
  inhibition: > 75%

## O=C(O)c1ccc(C(=O)O)cc1
[7]
  inhibition: > 75%
